Experimental data reported in US8535689B2, “Identification of bacterial autoinducer and use in treating bacterial pathogenicity” (priority 2007, dated 2013).
Entries after “also recorded” stand apart in the source; their conditions may differ.

Columns and labels:
[1] = tested on: CAI-1 reporter strain MM920 (V. cholerae El Tor C6706str ΔcqsA ΔluxQ/pBB1 (luxCDABE from V. harveyi)); experiment: Bioluminescence assay in V. cholerae CAI-1 reporter strain MM920; format: cell-based, Vibrio cholerae; details: for bioluminescence as a percentage of the bioluminescence activity of the V. cholerae CAI-1 autoinducer: reporter strain MM920, reference (S)-3-hydroxytridecan-4-one (CAI-1), FIG. 13; for activation of the V. cholerae quorum sensing circuit: to different degrees, pattern C13(5)>C13(R)>C12(S)≈C12(R)>C11(S)>C11(R); for activation of the V. cholerae quorum sensing circuit / fold greater biological activity than the molecule one carbon shorter: FIG. 3; for fold greater biological activity than the molecule one carbon shorter: side chain length comparison
Protocol: CAI-1 Purification from E. coli. V. cholerae cqsA (VCA0523) was cloned into pTrc99A and transformed into E. coli strain DH5α. The recombinant strain was grown at room temperature with aeration in 2.4 L of M9 medium supplemented with glucose (4 g/L), leucine (0.5 g/L), and ampicillin (0.1 g/L). cqsA expression was induced for 16 h with 0.5 mM IPTG. Following centrifugation at 10,000×g and passage through a 0.22 μm filter, the cell-free culture fluid was mixed with 0.6 v dichloromethane (DCM) in a reparatory funnel. The organic phase was isolated, evaporated, and assayed for CAI-1 activity using the bioluminescent V. cholerae CAI-1 reporter strain MM920 (V. cholerae El Tor C67O6str ΔcqsA ΔluxQ/pBB1 (luxCDABE from V. harveyi)), as described in Miller et al. (2002). The extract was dissolved in DCM and further purified by passage through silica gel with 0.5 L of 7:3 DCM:methanol, followed by concentration via evaporation. 50-100 mg of the concentrate was dissolved in ˜1 mL DCM, injected onto a (2×25-cm) ethyl-pyridine HPLC column, and eluted using a gradient of increasing ethyl acetate in hexanes (0-80%) at 20 mL/min. Fractions were tested for CAI-1 activity; active fractions were pooled.
Bioluminescence Assays. When assaying column fractions for autoinducer activity, 5% of each fraction was evaporated and dissolved in a mixture of water:acetonitrile (2:1). This preparation was added at 2% volume to the CAI-1 reporter strain MM920 (V. cholerae El Tor C67O6str ΔcqsA ΔluxQ/pBB1 (luxCDABE from V. harveyi)) according to previously described methods, as described in Miller et al. (2002). Synthetic CAI-1 preparations were dissolved in DMSO and supplied at 0.5% total volume to MM920 at specified concentrations.
[…]. Bioluminescence measurements at varying concentrations of analogue (generally from […]) were measured using a Wallac EnVision 2103 Multilabel Reader (Perkin Elmer, Waltham, Mass.).

[2] = tested on: TcpA, a subunit of the toxin co-regulated pilus (TCP); experiment: Western blot of TcpA production in V. cholerae strains treated with synthetic CAI-1; format: cell-based, Vibrio cholerae; details: ΔluxQ
Excerpt: Western Blot Analysis. […]. Anti-TcpA antibody and Anti-Rabbit IgG Horseradish Peroxidase Conjugate (Promega) were used with the SuperSignal West Pico Chemiluminescent Substrate (Pierce) system.
Results. A major goal of quorum-sensing research is to develop strategies to artificially manipulate quorum-sensing-controlled processes in bacteria. […]. Proc. Natl. Acad. Sci. USA 84, 2833-2837 (1987), hereby incorporated by reference into this application. […]. […]. Importantly, synthetic CAI-1 had no effect on TcpA production in a ΔluxQ, ΔcqsS strain, which cannot respond to either CAI-1 or AI-2 (FIG. 4b, bottom row). […]

[3] = CAI-1 thermal stability, read with the V. cholerae bioluminescence assay; format: physicochemical; details: pH 7 phosphate buffer, FIG. 6a
Protocol: CAI-1 stock in DMSO was diluted 1:128 into 10 mM potassium phosphate buffer at pH 7 to a final autoinducer concentration of 400 μM. Samples were incubated for specified lengths of time, chilled briefly on ice, and frozen in dry ice/ethanol. Samples were thawed, diluted 1:3 in the same phosphate buffer, and read with the V. cholerae bioluminescence assay. Diluted sample was added at 2.5% of reporter culture volume, for final concentrations of 3.3 μM CAI-1 and 250 μM potassium phosphate.

[4] = CAI-1 pH stability, read with the V. cholerae bioluminescence assay; format: physicochemical; details: pH 2, 4, 6, 7, 8, 10, 12 potassium phosphate buffer; 5, 20, 60 minutes or overnight; FIG. 6b
Protocol: CAI-1 stock in DMSO was diluted 1:128 into 100 mM potassium phosphate buffer at specified pH values to a final autoinducer concentration of 400 μM. Following incubation at room temperature for specified times, samples were neutralized with an equal volume of 100 mM potassium phosphate buffer (e.g. pH 10 buffer was added to pH 4 buffered autoinducer). Neutralized samples, now with 200 μM CAI-1, were chilled briefly on ice and frozen in dry ice/ethanol. Autoinducer samples were thawed, diluted 1:3 in 100 mM pH 7 potassium phosphate buffer, and read with the V. cholerae bioluminescence assay. Diluted sample was added at 5% of reporter culture volume, for final concentrations of 3.3 μM CAI-1 and 5 mM potassium phosphate.

[5] = tested on: E. coli KX1200 (MG1655 ΔluxS); experiment: CAI-1 stability in culture with E. coli cells; format: in vitro ADME, Escherichia coli; details: E. coli ΔluxS in LB, 37° C. overnight, 10 μM CAI-1; FIG. 6d
Protocol: (§1) Early stationary phase E. coli KX1200 (MG1655 ΔluxS) and V. cholerae BH1575 (El Tor C6706str ΔluxS ΔcqsA) were diluted to OD 0.1 in LB medium. Along with sterile LB medium, they were shaken overnight at 37° C. with and without 10 μM CAI-1 supplementation. Culture and LB samples were centrifuged at 10,000×g, filtered with 0.22 μm filters, and read at 10% final culture volume using the V. cholerae CAI-1 reporter bioassay.

[6] = tested on: V. cholerae BH1575 (El Tor C6706str ΔluxS ΔcqsA); experiment: CAI-1 stability in culture with V. cholerae cells; format: in vitro ADME, Vibrio cholerae; details: V. cholerae ΔluxS ΔcqsA in LB, 37° C. overnight, 10 μM CAI-1; FIG. 6d
Protocol: as §1

## [2H]C([2H])(C)C(O)C(=O)CCCCCCCCC (stereo not drawn) [2,2-D2-3-hydroxytridecan-4-one]
[1]
  bioluminescence as a percentage of the bioluminescence activity of the V. cholerae CAI-1 autoinducer: equivalent activity to CAI-1

## CCCCCCCC(=O)[C@H](O)CC [C11(R), (R)-3-hydroxyundecan-4-one]
[1]
  activation of the V. cholerae quorum sensing circuit: activated

## CCCCCCCC(=O)[C@@H](O)CC [C11(S), (S)-3-hydroxyundecan-4-one]
[1]
  activation of the V. cholerae quorum sensing circuit: activated

## CCCCCCCCCC(=O)[C@@H](O)CC [CAI-1, (S)-3-hydroxytridecan-4-one]
[1]
  bioluminescence as a percentage of the bioluminescence activity of the V. cholerae CAI-1 autoinducer: 100%
  activation of the V. cholerae quorum sensing circuit: activated
[2]; cqsA+ V. cholerae strain, FIG. 4b middle row
  TcpA production: repress TcpA production; also recorded: decreased
[2]; ΔcqsA V. cholerae strain, CAI-1 at concentrations up to 10 μM, FIG. 4b top row
  TcpA production: repress TcpA production; also recorded: substantially repressed
[2]; ΔcqsS V. cholerae strain, FIG. 4b bottom row
  TcpA production: no effect
[3]; high temperatures (up to 80° C.)
  heat stability: subject to degradation
[3]; physiologically relevant temperatures, 5, 20, 60 minutes or overnight
  heat stability: heat stable
[4]
  pH stability: stable under a wide range of pH values
[5]
  effect of cells on CAI-1 levels: do not adversely affect CAI-1 levels
[6]
  effect of cells on CAI-1 levels: do not adversely affect CAI-1 levels

## CCCCCCCCC(=O)[C@@H](O)CC [Compound 5, (S)-3-hydroxydodecan-4-one]
[1]
  bioluminescence as a percentage of the bioluminescence activity of the V. cholerae CAI-1 autoinducer: twenty
  activation of the V. cholerae quorum sensing circuit: activated

## CCCCCCCCC(=O)[C@H](O)CC [Compound 6, (R)-3-hydroxydodecan-4-one]
[1]
  bioluminescence as a percentage of the bioluminescence activity of the V. cholerae CAI-1 autoinducer: twenty
  activation of the V. cholerae quorum sensing circuit: activated

## CCCCCCCCCC(=O)[C@H](O)CC [Compound 7, (R)-3-hydroxytridecan-4-one]
[1]
  bioluminescence as a percentage of the bioluminescence activity of the V. cholerae CAI-1 autoinducer: forty
  activation of the V. cholerae quorum sensing circuit: activated

## CCCCCCCCCC(=O)C(=O)CC [Compound 10, tridecane-3,4-dione]
[1]
  bioluminescence as a percentage of the bioluminescence activity of the V. cholerae CAI-1 autoinducer: ten
[1]; listed as tridecan-3,4-dione
  bioluminescence as a percentage of the bioluminescence activity of the V. cholerae CAI-1 autoinducer: 10%

## CCCCCCCCCC(=O)C(N)CC.Cl (stereo not drawn) [Compound 22, 3-aminotridecan-4-one hydrochloride]
[1]
  bioluminescence as a percentage of the bioluminescence activity of the V. cholerae CAI-1 autoinducer: equivalent activity to CAI-1

## CCCCCCCCCC(=O)C(O)CC (stereo not drawn) [thirteen-carbon molecule, 3-hydroxytridecan-4-one]
[1]
  fold greater biological activity than the molecule one carbon shorter: 8 fold

## CCCCCCCCC(=O)C(O)CC (stereo not drawn) [twelve-carbon molecule, 3-hydroxydodecan-4-one]
[1]
  fold greater biological activity than the molecule one carbon shorter: 8 fold
